Patent publication US20220227720A1, “DHODH INHIBITORS AND THEIR USE AS ANTIVIRAL AGENTS” (priority 2019, published 2022)
Converted amounts (≈) assume the structure as drawn. Where two headings read alike, the source gives them in different places.

Tests used:
TOSV = experiment: microbe, parasite or virus in culture; assay type: cell-based, Toscana virus
HAZV = experiment: microbe, parasite or virus in culture; assay type: cell-based; settings: Hazara virus, Vero C1008, read-out: IC50 HAZV
TAHV = experiment: microbe, parasite or virus in culture; assay type: cell-based; settings: Tahyna virus, Vero C1008, read-out: IC50 TAHV
RVFV [1] = experiment: microbe, parasite or virus in culture; assay type: cell-based; settings: Rift Valley fever virus, Vero C1008, read-out: IC50 RVFV
YFV [2] = experiment: microbe, parasite or virus in culture; assay type: cell-based; settings: Yellow fever virus, Vero C1008, read-out: IC50 YFV
RVFV [3] = experiment: microbe, parasite or virus in culture; assay type: cell-based; settings: Rift Valley fever virus, SW13, read-out: IC50 RVFV
TBEV [4] = experiment: microbe, parasite or virus in culture; assay type: cell-based; settings: Tick-borne encephalitis virus, SW13, read-out: IC50 TBEV
VEEV [5] = experiment: microbe, parasite or virus in culture; assay type: cell-based; settings: Venezuelan equine encephalitis virus, SW13, read-out: IC50 VEEV
RVFV [6] = experiment: microbe, parasite or virus in culture; assay type: cell-based; settings: Rift Valley fever virus, HEK293, read-out: IC50 RVFV
VEEV [7] = experiment: microbe, parasite or virus in culture; assay type: cell-based; settings: Venezuelan equine encephalitis virus, HEK293, read-out: IC50 VEEV
[8] = Cytotoxicity assay (CellTiter-Blue), Vero E6 cells; settings: for CC50 at 4 days: monkey (simian), Vero E6 cells, CC50, Simian Vero E6 cells, value repeated under each virus; for CC50: cell line not given
DENV = experiment: Virus yield reduction assay, DENV in Vero E6 cells; assay type: cell-based; settings: Dengue virus, Vero C1008; Simian Vero E6 cells; FLAVI virus family
TBEV [9] = experiment: microbe, parasite or virus in culture; assay type: cell-based; settings: Tick-borne encephalitis virus, Vero C1008, read-out: IC50 TBEV
VEEV [10] = experiment: microbe, parasite or virus in culture; assay type: cell-based; settings: Venezuelan equine encephalitis virus, Vero C1008, read-out: IC50 VEEV
TBEV [11] = experiment: microbe, parasite or virus in culture; assay type: cell-based; settings: Tick-borne encephalitis virus, L929, in Mus musculus, read-out: IC50 TBEV
VEEV [12] = experiment: microbe, parasite or virus in culture; assay type: cell-based; settings: Venezuelan equine encephalitis virus, L929, in Mus musculus, read-out: IC50 VEEV
RVFV [13] = experiment: microbe, parasite or virus in culture; assay type: cell-based; settings: Rift Valley fever virus, BHK-21, in Mesocricetus auratus, read-out: IC50 RVFV
VEEV [14] = experiment: microbe, parasite or virus in culture; assay type: cell-based; settings: Venezuelan equine encephalitis virus, BHK-21, in Mesocricetus auratus, read-out: IC50 VEEV
[15] = Cytotoxicity assay, L929 cells; settings: mouse
[16] = Cytotoxicity assay, SW13 cells; settings: human
[17] = Cytotoxicity assay, BHK-21 cells; settings: hamster, BHK-21 cells, CC50, Hamster BHK-21 cells; value repeated under each virus
Vero E6 cells = experiment: Cytotoxicity assay (CellTiter-Blue), Vero E6 cells; settings: Simian Vero E6 cells; value repeated under each virus
[18] = Cytotoxicity assay (CellTiter-Blue), HEK-293 cells; settings: human
RVFV [19] = experiment: microbe, parasite or virus in culture; assay type: cell-based; settings: Rift Valley fever virus, L929, in Mus musculus, read-out: IC50 RVFV
YFV [20] = experiment: microbe, parasite or virus in culture; assay type: cell-based; settings: Yellow fever virus, BHK-21, in Mesocricetus auratus, read-out: IC50 YFV
Plasma stability = settings: 1 μm, 37° C., mouse plasma diluted with 1 volume of PBS pH 7.4
Solubility in PBS pH 7.4 = settings: PBS pH 7.4, 20 °C, pH 7.4, aqueous buffer
[21] = Log D (PBS pH 7.4/octanol)
[22] = Hepatic microsome stability; settings: 1 μm, 37° C., 0.5 mg/mL microsomes of mouse liver; cofactor: NADPH
[23] = Hydrolysis study in mouse liver extract; settings: FIG. 1, FIG. 2
ZIKV = experiment: Virus yield reduction assay, ZIKV in Vero E6 cells; assay type: cell-based; settings: Zika virus, Vero C1008; Simian Vero E6 cells; FLAVI virus family
TBEV [24] = experiment: microbe, parasite or virus in culture; assay type: cell-based; settings: Tick-borne encephalitis virus, HEK293, read-out: IC50 TBEV
[25] = Metabolic stability in S9 fraction
[26] = Toscana virus, Vero C1008, read-out: IC50 (TOSV)

## CC(C)c1ccccc1SCC(=O)Nc1ccccc1C(=O)O [Example 2]
TOSV; [26]
  IC50: 550 ± 50 nM
HAZV
  IC50: 700 ± 200 nM
TAHV
  IC50: 270 nM
RVFV [1]
  IC50: ~2000 nM
YFV [2]
  IC50: 700 ± 200 nM
RVFV [3]
  IC50: 500 nM
TBEV [4]
  IC50: 930 nM
VEEV [5]
  IC50: 1500 nM
RVFV [6]
  IC50: 400 nM
VEEV [7]
  IC50: 450 nM
[8]
  CC50 at 4 days: 110000 ± 10000 nM

## COc1ccc(Nc2ccc(Oc3ccccc3)cc2)c(C(=O)O)c1 [Example 4]
TOSV; [26]
  IC50: 80 nM
HAZV
  IC50: 120 nM
TAHV
  IC50: 100 nM
RVFV [1]
  IC50: 20 nM
YFV [2]
  IC50: 220 nM
DENV
  IC50: 180 nM
TBEV [9]
  IC50: 120 nM
VEEV [10]
  IC50: 60 nM
TBEV [11]
  IC50: 160 nM
VEEV [12]
  IC50: 220 nM
RVFV [13]
  IC50: 850 nM
VEEV [14]
  IC50: 1300 nM
RVFV [3]
  IC50: 130 nM
TBEV [4]
  IC50: 380 nM
VEEV [5]
  IC50: 220 nM
[15]
  CC50: 70000 nM
[16]
  CC50: 75000 nM
[17]
  CC50: 125000 nM
[8]
  CC50 at 4 days: 71000 ± 1000 nM
Vero E6 cells
  CC50: 37900 nM
[18]
  CC50 at 3 days: 125000 nM

## O=C(O)c1ccccc1Nc1ccc(Cc2ccccc2)cc1 [Example 5]
TOSV; [26]
  IC50: 325 nM
HAZV
  IC50: 360 nM
TAHV
  IC50: 450 nM
VEEV [12]
  IC50: > 1000 nM
[15]
  CC50: 60000 nM
[8]
  CC50 at 4 days: 44000 nM
Vero E6 cells
  CC50: 77500 nM

## CCC(=O)Nc1ccc(-c2ccc(-c3ccccc3)cc2)cc1C(=O)O [Example 6]
TOSV; [26]
  IC50: 120 nM
HAZV
  IC50: 120 nM
RVFV [1]
  IC50: 140 nM
TBEV [9]
  IC50: 120 ± 10 nM
VEEV [10]
  IC50: 120 nM
RVFV [19]
  IC50: 3 nM
TBEV [11]
  IC50: 9 nM
VEEV [12]
  IC50: 9 nM
RVFV [13]
  IC50: > 200 nM
YFV [20]
  IC50: > 200 nM
VEEV [7]
  IC50: 19 nM
Plasma stability
  Plasma stability [% remaining at 2 h]: 94 ± 6 % remaining at 2 h
Solubility in PBS pH 7.4
  solubility: 61 ± 17 µM (≈ 21.1 µg/mL)
[21]
  logD: 3.07 ± 0.05
[22]
  Hepatic microsome stability [% remaining at 1 h]: 49 ± 0 % remaining at 1 h
[15]
  CC50: 15000 nM
[23]
  Hydrolysis in mouse liver extract (amide bond stability): more stable
[8]
  CC50 at 4 days: 10000 nM

## CCC(=O)Nc1ccc(-c2ccc(-c3ccccc3)c(F)c2)cc1C(=O)O [Example 7]
TOSV; [26]
  IC50: 110 nM
HAZV
  IC50: 70 nM
TAHV
  IC50: 120 nM
RVFV [1]
  IC50: 120 nM
TBEV [9]
  IC50: 13 nM
VEEV [10]
  IC50: 120 nM
RVFV [19]
  IC50: 5.5 nM
TBEV [11]
  IC50: 4 nM
VEEV [12]
  IC50: 7 nM
VEEV [7]
  IC50: 14 nM
[15]
  CC50: 9000 nM
[8]
  CC50 at 4 days: 15000 nM

## CCCCCc1ccc(C#Cc2ccc(NC(=O)CC)c(C(=O)O)c2)cc1 [Example 8, 5-((4-pentylphenyl)ethynyl)-2-propionamidobenzoic acid]
TOSV; [26]
  IC50: 10 nM
HAZV
  IC50: 8 nM
TAHV
  IC50: 10 nM
RVFV [1]
  IC50: 6 nM
YFV [2]
  IC50: 6 nM
DENV
  IC50: 5 nM
TBEV [9]
  IC50: 70 nM
ZIKV
  IC50: 9 nM
VEEV [10]
  IC50: 7 nM
RVFV [19]
  IC50: 2 nM
TBEV [11]
  IC50: 1.5 nM
VEEV [12]
  IC50: 3 nM
RVFV [13]
  IC50: 16 nM
YFV [20]
  IC50: 22 nM
RVFV [3]
  IC50: 8 nM
TBEV [4]
  IC50: 13 nM
VEEV [5]
  IC50: 13 nM
RVFV [6]
  IC50: 1.5 nM
TBEV [24]
  IC50: 3.1 nM
VEEV [7]
  IC50: 1.5 nM
Plasma stability
  Plasma stability [% remaining at 2 h]: 114 ± 5 % remaining at 2 h
Solubility in PBS pH 7.4
  solubility: 18 ± 6 µM (≈ 6.54 µg/mL)
[21]
  logD: 4.6 ± 0.3
[22]
  Hepatic microsome stability [% remaining at 1 h]: 70 ± 3 % remaining at 1 h
[15]
  CC50: 5000 nM
[16]
  CC50: 20000 nM
[17]
  CC50: 7500 nM
[8]
  CC50 at 4 days: 8000 nM

## CCC(C)c1ccccc1OCCOC(=O)Nc1ccccc1C(=O)O (stereo not drawn) [Example 12]
TOSV; [26]
  IC50: 190 nM
[25]
  Metabolic stability in a S9 fraction (rat): high metabolic stability
[8]
  CC50: 51000 nM

## CCC(C)(C)c1ccccc1OCCOC(=O)Nc1ccccc1C(=O)O [Example 13]
TOSV; [26]
  IC50: 128 nM
[25]
  Metabolic stability in a S9 fraction (rat): high metabolic stability
[8]
  CC50: > 25000 nM

## O=C(O)c1ccccc1NC(=O)n1ccc2ccccc21 [Example 14]
TOSV; [26]
  IC50: 9000 nM
[8]
  CC50: 40000 nM

## CCC(C)c1ccccc1OCCCC(=O)Nc1cnccc1C(=O)O (stereo not drawn) [Example 15]
TOSV; [26]
  IC50: ~500 nM
[8]
  CC50: > 25000 nM

## CCC(C)c1ccccc1OCC(=O)Nc1ccc2c(c1C(=O)O)OC(F)(F)O2 (stereo not drawn) [Example 16]
TOSV; [26]
  IC50: 4000 nM
[8]
  CC50: 37000 nM

## O=C(COc1ccccc1Cc1ccccc1)Nc1ccc2c(c1C(=O)O)OC(F)(F)O2 [Example 17]
TOSV; [26]
  IC50: 6000 nM
[8]
  CC50: 32000 nM

## CCc1nc2cc(-c3ccc(-c4ccccc4)cc3)cc(C(=O)O)c2[nH]1 [Example 19]
TOSV; [26]
  IC50: 118 nM
[8]
  CC50: 8000 nM

## CCC(C)c1ccccc1OCc1nc2ccc(C)cc2c(=O)o1 (stereo not drawn) [Example 20]
TOSV; [26]
  IC50: 600 nM
[8]
  CC50: 75000 nM

## Cc1ccc2nc(COc3ccc(Cl)cc3Cc3ccccc3)oc(=O)c2c1 [Example 21]
TOSV; [26]
  IC50: 800 nM
[8]
  CC50: > 100000 nM

## CCC(C)c1ccccc1OCCCc1nc2ccc(F)cc2c(=O)o1 (stereo not drawn) [Example 22]
TOSV; [26]
  IC50: 300 nM
[8]
  CC50: 17000 nM

## CS(N)(=O)=O [methyl sulfonamide]
TOSV; read-out: IC50 (TOSV)
  IC50: 1500 nM
